According to patent publication US6372208B1, “Method of reducing an immune response to a recombinant virus” (The Trustees of the University of Pennsylvania, priority 1996, dated 2002):

How the values were obtained:
Format in all cases: in vivo, C57BL/6 mice
[1] = system: recombinant adenoviruses H5.010CBALP and H5.010CMVlacZ; assay: Lung-directed adenovirus gene transfer and readministration, transgene expression by histochemistry (Example 2)
Description: Female C57BL/6 mice (6˜8 week old) were infected with suspensions of H5.010CBALP (1×10^9 pfu in 50 μl of PBS) via the trachea at day 0 and similarly with H5.010CMVlacZ at day 28. One group of such mice was used as a control. Another group of mice were acutely depleted of CD4^+ cells by i.p. injection of antibody to CD4^+ cells (GK1.5; ATCC No. TIB207, 1:10 dilution of ascites) at the time of the initial gene therapy (days −3, 0, and +3). A third group of mice was injected with IL-12 (1 μg intratracheal or 2 μg, i.p. injections) at the time of the first administration of virus (days 0 and +1). A fourth group of mice was injected with gamma interferon. (1 μg intratracheal or 2 μg, i.p. injections) at the time of the first administration of virus (days 0 and +1).
When mice were subsequently euthanized and necropsied at days 3, 28, or 31, lung tissues were prepared for cryosections, while bronchial alveolar lavage (BAL) and mediastinal lymph nodes (MLN) were harvested for immunological assays.
The lung tissues were evaluated for ALP expression at day 3 and day 28 by histochemical staining following the procedures of Yang I, cited above. β-galactosidase expression was assayed at day 31 by X-gal histochemical staining. The results described below were obtained from the alkaline phosphatase histochemical stains (magnification ×100) or β-galactosidase X-gal stains (magnification ×100).

[2] = system: human Ad5 recombinant vector; assay: Neutralizing antibody to adenovirus in BAL (Hela cell lacZ transduction); conditions: day 28, versus control mice
Description: BAL samples obtained from animals 28 days after primary exposure to recombinant virus were evaluated for neutralizing antibodies to adenovirus and anti-adenovirus antibody isotypes as follows. The same four groups of C57BL/6 mice, i.e., control, CD4^+ depleted, IL-12 treated and IFN-γ treated, were infected with H5.010BALP. Neutralizing antibody was measured in serially-diluted BAL samples (100 μl) which were mixed with H5.010CBlacZ (1×10^6 pfu in 20 μl), incubated for 1 hour at 37° C., and applied to 80% confluent Hela cells in 96 well plates (2×10^4 cells per well). After 60 minutes of incubation at 37° C., 100 μl of DMEM containing 20% FBS was added to each well. Cells were fixed and stained for β-galactosidase expression the following day.
(§1) The results are shown graphically in FIGS. 1A through 1C, which summarize neutralizing antibody titer, and the relative amounts (OD405) of IgG and IgA present in BAL samples.

[3] = system: adenovirus (H5.010CMVlacZ); assay: Neutralizing antibody to adenovirus in serum; conditions: IL-12 i.p., liver-directed
From the text: Mice from each group were subsequently euthanized and liver tissues evaluated for lacZ expression by X-gal histochemistry (magnification ×100) at day 3 and day 28; and for ALP expression by histochemical staining at day 31 (magnification ×100). Development of neutralizing antibody to adenovirus in each group of mice was examined in serum samples obtained at day 28.
Serum samples were also collected at days 0, 3, 7, 14, 21, 28, 35 and 42 from each group of animals and assayed for neutralizing antibody titer. Serum samples were incubated at 56° C. for 30 minutes and then diluted in DMEM in twofold steps starting from 1:20. Each serum dilution (100 μl) was mixed with H5.010CMVlacZ (2×10^6 pfu in 20 μl), incubated for 1 hour at 37° C., and applied to 80% confluent Hela cells in 96-well plates (2×10^4 cells per well). After 60 minutes incubation at 37° C., 100 μl of DMEK containing 20% FBS were added to each well. Cells were fixed and stained for β-galactosidase expression on the following day. All of the cells stained blue in the absence of serum samples. […] FIGS. 3A-3D report the antibody titer expressed as a function of days post-infection.

H5.010CBlacZ = assay: Adenovirus-specific IgG and IgA in BAL by ELISA; conditions: day 28, versus control mice
Description: Adenovirus-specific antibody isotype was determined in BAL by using an enzyme-linked immunosorbent assay (ELISA). Briefly, 96-well plates were coated with 100 μl of PBS containing 5×10^9 particles of H5.010CBlacZ for 18 hours at 4° C. The wells were washed 5 times with PBS. After blocking with 200 μl of 2% BSA in PBS, the plates were rinsed once with PBS and incubated with 1:10 diluted BAL samples for 90 minutes at 4° C. Thereafter, the wells were extensively washed and refilled with 100 μl of 1:1000 diluted ALP-conjugated anti-mouse IgG or IgA (Sigma). The plates were incubated, subsequently washed 5 times, and 100 μl of the substrate solution (p-nitrophenyl phosphate, PNPP) was added to each well. Substrate conversion was stopped by the addition of 50 μl of 0.1M EDTA, and reactions were read at 405 nm.
as §1

H5.010CMVlacZ virus = assay: Adenovirus-specific IgG1 and IgG2a in serum by ELISA; conditions: 28 days after infection
Description: A. Serum samples obtained from the C57BL/6 mice (“B6”) and IL-12 treated C57BL/6 (“B6+IL12”) mice of Example 5 were tested 28 days after infection for adenovirus-specific IgG1 and IgG2a antibody isotypes.
A solid phase enzyme linked immunosorbent assay (ELISA) using purified H5.010CMVlacZ virus as antigen was performed. Immunolon-2-U microtiter plates (Fisher) were coated with 200 ng/well of viral antigen in […] of PBS for 6 hours at 37° C., washed three times in PBS, and blocked in PBS/1% BSA overnight at 4° C. The following day, 4-fold serial diluted serum samples were added to antigen-coated plates and incubated for 4 hours at 37° C. Plates were washed three times in PBS/1% BSA and incubated with goat anti-mouse IgG1-biotin or goat anti-mouse IgG2a-biotin (CALTAG Laboratories, San Francisco, Calif.) at 1:5000 dilution for 2 hours at 37° C. Plates were washed as above and Avidin-ALP (Sigma) was added to each well at 1:5000 dilution for 1 hour at 37° C. Wells were again washed as above and PNPP substrate was added. Optical densities were read on a Biorad model 450 microplate reader.

Substance: interleukin-12 [IL-12]
- transgene expression after first administration of virus (ALP) ([1]; lung, intratracheal, days 3 and 28): diminished after about one month
- gene transfer upon second administration of virus (lacZ) ([1]; lung, readministered day 28, read day 31): high level gene transfer to airway epithelial cells was achieved
- inflammation and transgene persistence following a second administration of virus ([1]; treatment at the time of intratracheal instillation of virus): did not enhance inflammation or diminish transgene persistence
- reduction of neutralizing antibody in BAL [2]: 20 fold
- reduction in neutralizing antibody [3]: 3 fold
- IgG in BAL (H5.010CBlacZ): without significantly impacting on formation of IgG
- virus specific IgA in BAL (H5.010CBlacZ): selectively blocked secretion of antigen specific IgA
- anti-viral IgG1 in serum (H5.010CMVlacZ virus): less anti-viral IgG1
- anti-viral IgG2a in serum (H5.010CMVlacZ virus): increased production of IgG2a
